Reference: patent US12077503B2, “Substituted cyclic amides and their use as herbicides” (FMC CORPORATION, priority 2015, dated 2024)

Tests used:
Format in all cases: in vivo
[1] = tested on: barnyardgrass (Echinochloa crus-galli); experiment: Test B flooded paddy test; details: Echinochloa crus-galli, Flood, 250 g ai/ha; scale of 0 to 100 where 0 is no effect and 100 is complete control; read-out: Barnyardgrass plant response rating
Method in brief: (§1)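 2-leaf plants; pots flooded 3 cm over soil; cpd added to paddy water; depth held; greenhouse 13–15 d; visual rating vs controls, 0 = no effect, 100 = complete control.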

[2] = tested on: sedge, umbrella (small-flower umbrella sedge, Cyperus difformis); experiment: Test B flooded paddy test; details: Cyperus difformis, Flood, 250 g ai/ha; scale of 0 to 100 where 0 is no effect and 100 is complete control; read-out: Sedge, Umbrella plant response rating
Method in brief: as §1

[3] = tested on: ducksalad (Heteranthera limosa); experiment: Test B flooded paddy test; details: Heteranthera limosa, Flood, 250 g ai/ha; scale of 0 to 100 where 0 is no effect and 100 is complete control; read-out: Ducksalad plant response rating
Method in brief: as §1

rice (Oryra sativa) = experiment: Test B flooded paddy test; details: Oryza sativa, Flood, 250 g ai/ha; scale of 0 to 100 where 0 is no effect and 100 is complete control; read-out: Rice plant response rating
Method in brief: as §1

[4] = tested on: barnyardgrass (Echinochloa crus-galli); experiment: Test A postemergence; details: Echinochloa crus-galli, post-emergence, 240 h, 125 g ai/ha, Postemergence; visual injury after approximately 10 d; 0 to 100 scale where 0 is no effect and 100 is complete control; read-out: Plant response rating, Barnyardgrass
Method in brief: (§2)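 Seeds sprayed preemergence with a directed soil spray, or plants at 2 to 10 cm height and one- to two-leaf stage sprayed postemergence, with test chemicals in a non-phytotoxic solvent mixture containing surfactant, in loam soil–sand blend. Injury rated visually against untreated controls after about 10 d in greenhouse, 0 (no effect) to 100 (complete control).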

[5] = tested on: blackgrass (Alopecurus myosuroides); experiment: Test A postemergence; details: Alopecurus myosuroides, post-emergence, 240 h, 125 g ai/ha, Postemergence; visual injury after approximately 10 d; 0 to 100 scale where 0 is no effect and 100 is complete control; read-out: Plant response rating, Blackgrass
Method in brief: as §2

corn (Zea mays) = experiment: Test A postemergence; details: Zea mays, post-emergence, 240 h, 125 g ai/ha, Postemergence; visual injury after approximately 10 d; 0 to 100 scale where 0 is no effect and 100 is complete control
Method in brief: as §2

[6] = tested on: pigweed (Amaranthus retroflexus); experiment: Test A postemergence; details: Amaranthus retroflexus, post-emergence, 240 h, 125 g ai/ha, Postemergence; visual injury after approximately 10 d; 0 to 100 scale where 0 is no effect and 100 is complete control; read-out: Plant response rating, Pigweed
Method in brief: as §2

Kochia (Kochia scoparia) [7] = experiment: Test A postemergence; details: Bassia scoparia, post-emergence, 240 h, 125 g ai/ha, Postemergence; visual injury after approximately 10 d; 0 to 100 scale where 0 is no effect and 100 is complete control; read-out: Plant response rating, Kochia
Method in brief: as §2

[8] = tested on: ryegrass, Italian (Italian ryegrass, Lolium multiflorum); experiment: Test A postemergence; details: Lolium multiflorum, post-emergence, 240 h, 125 g ai/ha, Postemergence; visual injury after approximately 10 d; 0 to 100 scale where 0 is no effect and 100 is complete control; read-out: Plant response rating, Ryegrass, Italian
Method in brief: as §2

[9] = tested on: giant foxtail (Setaria faberii); experiment: Test A postemergence; details: Setaria faberi, post-emergence, 240 h, 125 g ai/ha, Postemergence; visual injury after approximately 10 d; 0 to 100 scale where 0 is no effect and 100 is complete control; read-out: Plant response rating, Foxtail, Giant
Method in brief: as §2

[10] = tested on: Galium (catchweed bedstraw, Galium aparine); experiment: Test A postemergence; details: Galium, post-emergence, 240 h, 125 g ai/ha, Postemergence; visual injury after approximately 10 d; 0 to 100 scale where 0 is no effect and 100 is complete control; read-out: Plant response rating, Galium
Method in brief: as §2

[11] = tested on: ragweed (common ragweed, Ambrosia elatior); experiment: Test A postemergence; details: Ambrosia artemisiifolia, post-emergence, 240 h, 125 g ai/ha, Postemergence; visual injury after approximately 10 d; 0 to 100 scale where 0 is no effect and 100 is complete control; read-out: Plant response rating, Ragweed
Method in brief: as §2

[12] = tested on: wheat (Triticum aestivum); experiment: Test A postemergence; details: Triticum aestivum, post-emergence, 240 h, 125 g ai/ha, Postemergence; visual injury after approximately 10 d; 0 to 100 scale where 0 is no effect and 100 is complete control; read-out: Plant response rating, Wheat
Method in brief: as §2

[13] = tested on: barnyardgrass (Echinochloa crus-galli); experiment: Test A preemergence; details: Echinochloa crus-galli, pre-emergence, 240 h; for pest or weed control at 125 g/ha: 125 g ai/ha, Preemergence, visual injury rating after approximately 10 d, read-out: Barnyardgrass plant response rating (0 to 100 scale, 0 is no effect, 100 is complete control); for pest or weed control at 500 g/ha: 500 g ai/ha, preemergence, visual injury rating about 10 d after treatment, 0 to 100 scale (0 no effect, 100 complete control), read-out: Barnyardgrass plant response rating
Method in brief: as §2

[14] = tested on: pigweed (Amaranthus retroflexus); experiment: Test A preemergence; details: Amaranthus retroflexus, pre-emergence, 240 h; for pest or weed control at 125 g/ha: 125 g ai/ha, Preemergence, visual injury rating after approximately 10 d, read-out: Pigweed plant response rating (0 to 100 scale, 0 is no effect, 100 is complete control); for pest or weed control at 500 g/ha: 500 g ai/ha, preemergence, visual injury rating about 10 d after treatment, 0 to 100 scale (0 no effect, 100 complete control), read-out: Pigweed plant response rating
Kochia (Kochia scoparia) [15] = experiment: Test A preemergence; details: Bassia scoparia, pre-emergence, 240 h; for pest or weed control at 125 g/ha: 125 g ai/ha, Preemergence, visual injury rating after approximately 10 d, read-out: Kochia plant response rating (0 to 100 scale, 0 is no effect, 100 is complete control); for pest or weed control at 500 g/ha: 500 g ai/ha, preemergence, visual injury rating about 10 d after treatment, 0 to 100 scale (0 no effect, 100 complete control), read-out: Kochia plant response rating
Method in brief: as §2

[16] = tested on: ryegrass, Italian (Italian ryegrass, Lolium multiflorum); experiment: Test A preemergence; details: Lolium multiflorum, pre-emergence, 240 h; for pest or weed control at 125 g/ha: 125 g ai/ha, Preemergence, visual injury rating after approximately 10 d, read-out: Ryegrass, Italian plant response rating (0 to 100 scale, 0 is no effect, 100 is complete control); for pest or weed control at 500 g/ha: 500 g ai/ha, preemergence, visual injury rating about 10 d after treatment, 0 to 100 scale (0 no effect, 100 complete control), read-out: Ryegrass, Italian plant response rating
Method in brief: as §2

[17] = tested on: giant foxtail (Setaria faberii); experiment: Test A preemergence; details: Setaria faberi, pre-emergence, 240 h; for pest or weed control at 125 g/ha: 125 g ai/ha, Preemergence, visual injury rating after approximately 10 d, read-out: Foxtail, Giant plant response rating (0 to 100 scale, 0 is no effect, 100 is complete control); for pest or weed control at 500 g/ha: 500 g ai/ha, preemergence, visual injury rating about 10 d after treatment, 0 to 100 scale (0 no effect, 100 complete control), read-out: Foxtail, Giant plant response rating
Method in brief: as §2

[18] = tested on: ragweed (common ragweed, Ambrosia elatior); experiment: Test A preemergence; details: Ambrosia artemisiifolia, pre-emergence, 240 h; for pest or weed control at 125 g/ha: 125 g ai/ha, Preemergence, visual injury rating after approximately 10 d, read-out: Ragweed plant response rating (0 to 100 scale, 0 is no effect, 100 is complete control); for pest or weed control at 500 g/ha: 500 g ai/ha, preemergence, visual injury rating about 10 d after treatment, 0 to 100 scale (0 no effect, 100 complete control), read-out: Ragweed plant response rating
Method in brief: as §2

| Structure (SMILES) | pest or weed control at 250 g/ha [1] | pest or weed control at 250 g/ha [2] | pest or weed control at 250 g/ha [3] | pest or weed control at 250 g/ha (rice (Oryra sativa)) | pest or weed control at 125 g/ha [4] | pest or weed control at 125 g/ha [5] | Corn plant response rating (crop injury, 0 = no effect, 100 = complete kill) at 125 g/ha (corn (Zea mays)) | pest or weed control at 125 g/ha [6] | pest or weed control at 125 g/ha (Kochia (Kochia scoparia) [7]) | pest or weed control at 125 g/ha [8] | pest or weed control at 125 g/ha [9] | pest or weed control at 125 g/ha [10] | pest or weed control at 125 g/ha [11] | plant injury at 125 g/ha [12] | pest or weed control at 125 g/ha [13] | pest or weed control at 500 g/ha [13] | pest or weed control at 125 g/ha [14] | pest or weed control at 500 g/ha [14] | pest or weed control at 125 g/ha (Kochia (Kochia scoparia) [15]) | pest or weed control at 500 g/ha (Kochia (Kochia scoparia) [15]) | further results |
| --- | --- | --- | --- | --- | --- | --- | --- | --- | --- | --- | --- | --- | --- | --- | --- | --- | --- | --- | --- | --- | --- |
| O=C1NC[C@H](c2cc(C(F)(F)F)cs2)[C@H]1C(=O)Nc1ccccc1F [Compound 960] | 20% | 65% | 100% | 0% | 50% | 20% | 0% | 0% | 0% | 30% | 20% | 0% | 0% | 0% | 80% | 90% | 0% | 0% | 20% | 30% | pest or weed control at 125 g/ha [16]: 0%; pest or weed control at 500 g/ha [16]: 0%; pest or weed control at 125 g/ha [17]: 70%; pest or weed control at 500 g/ha [17]: 90%; pest or weed control at 125 g/ha [18]: 0%; pest or weed control at 500 g/ha [18]: 0% |
| CCc1cc(CC)cc([C@H]2CNC(=O)[C@@H]2C(=O)Nc2ccccc2C(F)(F)F)c1 [Compound 969] | 0% | 0% | 0% | 0% | 50% | 0% | 50% | 0% | 0% | 20% | 50% | 20% | 0% | 30% | 50% | 80% | 0% | 0% | 0% | 0% | pest or weed control at 125 g/ha [16]: 40%; pest or weed control at 500 g/ha [16]: 30%; pest or weed control at 125 g/ha [17]: 90%; pest or weed control at 500 g/ha [17]: 90%; pest or weed control at 125 g/ha [18]: 0%; pest or weed control at 500 g/ha [18]: 0% |
